According to PMC7763155, “Design and Characterisation of Inhibitory Peptides against Bleg1_2478, an Evolutionary Divergent B3 Metallo-β-lactamase” (Molecules, 2020):
Like-named read-outs stand apart in the source and are kept apart here. No end group written: not given here.

Legend:
[1] = target: T1, Bleg1_2478 (Shouchella lehensis (Bacillus lehensis), UniProt A0A060M4R1); assay: Isothermal titration calorimetry (ITC) with Bleg1_2478; format: binding, Bacillus lehensis G1
Experimental: ITC measurement was performed at 30 °C with nanoisothermal titration calorimetry, TA Instrument, USA at Malaysian Genome Institute. The peptides were dissolved in 20 mM sodium phosphate buffer (Na2HPO4-NaH2PO4) (pH 7.0). Bleg1_2478 protein sample, the selected peptide inhibitors and 20 mM sodium phosphate buffer (Na2HPO4-NaH2PO4) (pH 7.0) were firstly degassed by using Themovac Unit. The experiment was carried out at 30 °C with stirring speed of 300 rpm. The calorimetry data were subsequently analysed using NanoAnalyze Software v3.8.0. (New Castle, DE, USA)

[2] = target: T1, Bleg1_2478; details: in words; ref [22]; cited from earlier work
Text: Biochemical characterization of purified recombinant Bleg1_2478 further confirmed that it was indeed capable of degrading β-lactam antibiotics, with ampicillin ...

[3] = test system: Class A SBLs; details: in words; ref [17],[18],[19]; cited from earlier work
Text: (§1) AMR among bacteria can be acquired through various means, i.e., through: (1) hydrolysis or inactivation of antibiotics by synthesizing enzymes; (2) redox process by exploiting the oxidation or reduction of the antibiotics; (3) modification of antibiotics by chemical substitution; (4) modification of the inhibition binding site in the target; (5) mutations on genes that encode the target or efflux pump that affect antibiotics uptake; (6) horizontal gene transfer where resistant genes are transferred from one pathogen to another via transduction, conjugation or ...

[4] = test system: MBLs; details: in words; ref [20]; cited from earlier work
Text: as §1

[5] = target: T1, Bleg1_2478; assay: Inhibitory assay of designed peptides against Bleg1_2478 (ampicillin hydrolysis); format: biochemical, Bacillus lehensis G1; details: pH 7.0, 30 °C, triplicates
Experimental: The ability of the peptides in inhibiting Bleg1_2478 was investigated via inhibitory assay. Firstly, enzymatic assay of purified Bleg1_2478 recombinant protein using ampicillin as the substrate was performed, serving as the positive control. The assay was carried out based on the method by. All assays were performed at 30 °C in total assay volume of 3 mL containing 20 mM sodium phosphate (Na2HPO4-NaH2PO4) (pH 7.0), 20 µg/mL BSA, 100 µM ZnSO4, 10 µM Bleg1_2478 and 100 µM ampicillin. The reaction was monitored by recording the absorbance at 235 nm every 1 min for a total duration of 6 min using a 50 Bio UV Visible Spectrophotometry. […] All assays were done in triplicates.

[6] = target: Bleg1_2478 recombinant protein (Bacillus lehensis G1)
[7] = target: Bleg1_2478 recombinant protein (Bacillus lehensis G1); remark: listed apart in the source
[8] = target: Bleg1_2478 recombinant protein (Bacillus lehensis G1); assay: ITC; nano isothermal titration calorimetry (TA Instruments), 30 °C, 20 mM sodium phosphate buffer pH 7.0, stirring 300 rpm; which partner was in the cell and the concentrations are not stated
[9] = 10 µM peptide, 10 µM enzyme, 100 µM ampicillin
[10] = ITC, 30 °C, 20 mM sodium phosphate pH 7.0, 300 rpm, read-out: Dissociation constant, Kd

Q: With `CC1(C)S[C@@H]2[C@H](NC(=O)[C@H](N)c3ccccc3)C(=O)N2[C@H]1C(=O)O` [Ampicillin, ampicillin, reference compound] as the molecule, how does the Kd [1] read?
A: Its Kd is 1470 nM.

Q: What about the “Entropy, ΔS” value ([1]; ITC, 30 °C, 20 mM sodium phosphate pH 7.0) of the same molecule?
A: Its value is −248.00 J/mol·K.

Q: And the “Association constant, Ka” value ([1]; ITC, 30 °C, 20 mM sodium phosphate pH 7.0, 300 rpm)?
A: Its value is 680000 M⁻¹.

Q: What about the “Number of binding sites from stoichiometry” value ([1]; ITC, in words) of the same molecule?
A: The value was “one binding site”.

Q: And the Substrate preference [2]?
A: The Substrate preference was “preferred substrate”.

Q: With `O=C(O)[C@H]1/C(=C/CO)O[C@@H]2CC(=O)N21` [clavulanate] as the molecule, how does the “Effectiveness against Class A SBLs” value [3] read?
A: Its value is “effective”.

Q: And the “Effectiveness against MBLs” value [4]?
A: The value was “not”.

Q: Which results are given for `CC1(C)[C@H](C(=O)O)N2C(=O)C[C@H]2S1(=O)=O` [sulbactam]?
A: Effectiveness against Class A SBLs [3]: effective; Effectiveness against MBLs [4]: not

Q: Which “Effectiveness against Class A SBLs” value [3] does the source give for `C[C@]1(Cn2ccnn2)[C@H](C(=O)O)N2C(=O)C[C@H]2S1(=O)=O` [tazobactam] here?
A: Its value is “effective”.

Q: And the “Effectiveness against MBLs” value [4]?
A: Its value is “not”.

Q: For RSWPWH [RSWPWH], which “Inhibition of Bleg1_2478” value ([5]; 0.75 µM peptide) is on record?
A: Its value is 12%.

Q: What about the “Inhibition of Bleg1_2478” value [5, 9] of the same molecule?
A: Its value is 92%.

Q: And the Kd [1, 10]?
A: The Kd was 497 nM.

Q: What about the “Fold increase in binding strength (Kd)” value ([1]; ITC, compared to ampicillin) of the same molecule?
A: Its value is 34 fold.

Q: With SSWWDR [SSWWDR] as the molecule, how does the “Inhibition of Bleg1_2478” value ([5]; 0.25 µM peptide) read?
A: Its value is 4%.

Q: And the “Inhibition of Bleg1_2478” value ([5]; 0.50 µM peptide)?
A: The value was 48%.

Q: And the “Inhibition of Bleg1_2478” value ([5]; 0.75 µM peptide)?
A: Its value is 64%.

Q: And the “Inhibition of Bleg1_2478” value [5, 9]?
A: The value was 88%.

Q: And the “Inhibition of Bleg1_2478” value ([5]; 20 µM peptide, 10 µM enzyme, 100 µM ampicillin)?
A: Its value is 96%.

Q: What about the Kd [1, 10] of the same molecule?
A: The Kd was 992 nM.

Q: And the “Fold increase in binding affinity (Ka)” value ([1]; ITC, compared to ampicillin)?
A: The value was 1.5 fold.

Q: What about the “Fold increase in binding strength (Kd)” value ([1]; ITC, compared to ampicillin) of the same molecule?
A: The value was 68 fold.

Q: With RSWPWH [RSWPWH inhibitory peptide] as the molecule, how does the IC50 of inhibition of Bleg1 2478 enzymatic activity (hydrolysis of 100 µM ampicillin by 10 µM Bleg1 2478, absorbance at 235 nm, 30 °C, pH 7.0) [6] read?
A: The IC50 of inhibition of Bleg1 2478 enzymatic activity (hydrolysis of 100 µM ampicillin by 10 µM Bleg1 2478, absorbance at 235 nm, 30 °C, pH 7.0) was 0.9 µM.

Q: And the percent inhibition of Bleg1 2478 activity on ampicillin at 0.75 to 20 µM peptide (12% at 0.75 µM, 54% at 0.90 µM, 68% at 1 µM, 92% at 10 µM, the same at 20 µM) [7]?
A: The percent inhibition of Bleg1 2478 activity on ampicillin at 0.75 to 20 µM peptide (12% at 0.75 µM, 54% at 0.90 µM, 68% at 1 µM, 92% at 10 µM, the same at 20 µM) was 92%.

Q: And the Ka [8]?
A: The Ka was 2.01e+06 M⁻¹.

Q: And the Kd [8]?
A: Its Kd is 497 nM.

Q: What about the stoichiometry N [8] of the same molecule?
A: Its stoichiometry N is 0.941.

Q: For SSWWDR [SSWWDR inhibitory peptide], which IC50 of inhibition of Bleg1 2478 enzymatic activity (hydrolysis of 100 µM ampicillin by 10 µM Bleg1 2478, absorbance at 235 nm, 30 °C, pH 7.0) [6] is on record?
A: The IC50 of inhibition of Bleg1 2478 enzymatic activity (hydrolysis of 100 µM ampicillin by 10 µM Bleg1 2478, absorbance at 235 nm, 30 °C, pH 7.0) was 0.5 µM.

Q: And the percent inhibition of Bleg1 2478 activity on ampicillin at 0.25 to 20 µM peptide (4% at 0.25 µM, 48% at 0.50 µM, 64% at 0.75 µM, 76% at 1 µM, 88% at 10 µM, 96% at 20 µM) [7]?
A: The percent inhibition of Bleg1 2478 activity on ampicillin at 0.25 to 20 µM peptide (4% at 0.25 µM, 48% at 0.50 µM, 64% at 0.75 µM, 76% at 1 µM, 88% at 10 µM, 96% at 20 µM) was 96%.

Q: And the Ka [8]?
A: Its Ka is 1.01e+06 M⁻¹.

Q: What about the Kd [8] of the same molecule?
A: The Kd was 992 nM.

Q: What about the stoichiometry N [8] of the same molecule?
A: Its stoichiometry N is 0.722.
